Data from article PMC12005470, “Effects of Cholesterol on the Breast Cancer Resistance Protein: Studies through the Synthesis and Biological Evaluation of Chemical Tools” (Chemmedchem, 2025).

Legend:
[1] = molecular target: T1, breast cancer resistance protein (BCRP/ABCG2) (Homo sapiens, UniProt Q9UNQ0); assay: cell-based
T1 sequence (Q9UNQ0 1-655): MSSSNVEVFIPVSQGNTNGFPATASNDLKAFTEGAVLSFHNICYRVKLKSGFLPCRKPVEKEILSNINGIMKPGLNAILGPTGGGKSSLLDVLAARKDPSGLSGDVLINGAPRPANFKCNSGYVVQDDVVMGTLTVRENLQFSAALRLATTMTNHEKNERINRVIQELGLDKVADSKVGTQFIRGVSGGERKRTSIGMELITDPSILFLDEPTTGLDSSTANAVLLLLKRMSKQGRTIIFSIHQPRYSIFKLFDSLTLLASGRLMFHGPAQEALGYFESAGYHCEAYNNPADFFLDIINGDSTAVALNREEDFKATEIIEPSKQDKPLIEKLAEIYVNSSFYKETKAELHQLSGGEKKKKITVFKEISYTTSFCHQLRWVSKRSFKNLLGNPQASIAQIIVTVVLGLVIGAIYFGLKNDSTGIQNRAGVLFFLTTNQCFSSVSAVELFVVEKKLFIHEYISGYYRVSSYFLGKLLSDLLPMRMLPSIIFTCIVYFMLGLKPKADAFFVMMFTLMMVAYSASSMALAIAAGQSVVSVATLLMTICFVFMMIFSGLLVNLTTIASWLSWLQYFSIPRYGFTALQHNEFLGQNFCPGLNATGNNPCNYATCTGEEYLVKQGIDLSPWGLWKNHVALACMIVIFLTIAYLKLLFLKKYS

[2] = molecular target: T1, breast cancer resistance protein (BCRP/ABCG2); assay: Ko143-sensitive accumulation in HEK293-ABCG2 cells, confocal microscopy; efflux by flow cytometry; type: cell-based

SMILES | IC50 [1] [nM] | Ko143-sensitive accumulation in HEK293-ABCG2 cells, confocal microscopy; efflux [2]
O=C(/C=C/c1ccccc1)c1ccccc1 [compound 5, Chalcone (5)] | 2210 ± 500 | 
C=Cc1c(C)c2cc3nc(c4c5[nH]c(cc6nc(cc1[nH]2)C(C)=C6CC)c(C)c5C(=O)[C@@H]4C(=O)OC)[C@@H](CCC(=O)O)[C@@H]3C [compound 2, pheophorbide a] |  | ABCG2 inhibition by Ko143 caused an intracellular accumulation of hoechst and pheophorbide a (Figure S1)
